# Source: patent publication US12103919B2, “3-(5-oxy)-1-oxoisoindolin-2-yl)piperidine-2,6-dione derivatives and uses thereof” (NOVARTIS AG, priority 2021, dated 2024)
# Like-named read-outs stand apart in the source and are kept apart here.
# Target: T1, WIZ (Homo sapiens, UniProt O95785+Q96SW2)
# T1 construct: expressed in transfected cells
# Assay: Quantification of WIZ protein levels in HiBit tag fusion protein assay (293T cells)
# Format: cell-based
# Design: Dmax: dose or concentration left out as unconfirmed
# Method: The HiBit system from Promega was used to develop high-throughput and quantitative assays to measure changes in WIZ protein levels in response to compounds. The HiBit tag was derived from a split Nanoluciferase and has the following protein sequence: […] (SEQ ID NO: 1). The complementary fragment of Nanoluciferase (known as LgBit, from Promega), was added to the HiBit tag to form an active Nanoluciferase enzyme whose activity can be precisely measured. In this way, the levels of a fusion protein with the HiBit tag can be quantified in cell lysates.
# Lentiviral vectors, based on the Invitrogen™ pLenti6.2/V5 DEST backbone were constructed that places the HiBit tag upstream of WIZ and expressed the fusion protein from an HSVTK promotor.
# To ensure moderate and consistent expression of the HiBit-WIZ fusion protein across all cells in the population, stable cell lines were constructed from cells harboring a single copy of the construct. Lentivirus packaged with the constructs were made using the ViraPowerTMkit from Invitrogen™. 293T cells from ATCC (Catalog number: CRL-3216), were infected with the virus at low multiplicity of infection and selected by 5 μg/mL blasticidin in culture media for 2 weeks.
# The levels of HiBit-WIZ tagged fusion proteins in compound-treated cell lines were measured as follows:
# On day 1, cells were diluted to 1.0×10^6 cells/ml in normal growth medium. 20 μL of cell suspension were plated in each well of a solid white 384-well plate. Plates were incubated overnight in a 37° C. and 5% CO2 humidified tissue culture incubator.
# On day 2, serial dilutions of compounds were made in 384-well plates. Compound plates were set up with DMSO in columns 1, 2, 23, 24, and 10-point compound dilution series in column 3-12 and column 13-22. 10 mM stock solution of compound were placed into column 3 or 13 and a 1:5 serial dilution was carried out until there was a 10-point dilution series per compound. 50 nL of diluted compounds were transferred into the plated cells by Echo® (Labcyte) acoustic transfer. The highest concentration of compound was 25 μM. Plates were incubated overnight (about 18 hours) in a 37° C. and 5% CO2 humidified tissue culture incubator.
# On day 3, plates were removed from the incubator and allowed to equilibrate at room temperature for 60 minutes. HiBit substrate (Nano-Glo® HiBit Lytic Detection System, Promega Catalogue number: N3050) was added as described by the manufacturers protocols. Plates were incubated at room temperature for 30 minutes and luminescence was read using an EnVision® reader (PerkinElmer®). Data was analyzed and visualized using the Spotfire® software package.
# WIZ Amax reflects the DMSO-normalized, curve-fitted percentage of WIZ-HiBit remaining at 25 uM. It was calculated by normalizing DMSO controls to 100%, parametric curve fitting of the dose response data (10-point, 5-fold), followed by calculation of response at 25 uM using the fitted equation.
# [1] = HEK-293T, read-out: % degradation of WIZ (100 − Amax)
# [2] = HEK-293T; DMSO-normalized, curve-fitted percentage of WIZ-HiBit remaining at 25 uM; read-out: WIZ Amax
# [3] = HEK-293T; at 25 uM, 100 − Amax; read-out: % degradation of WIZ (100 − Amax)
# [4] = WIZ HiBit assay in 293T cells, about 18 hours, 10-point 5-fold dilution, top 25 μM; read-out: WIZ AC50
# T1 sequence (O95785 whole entry): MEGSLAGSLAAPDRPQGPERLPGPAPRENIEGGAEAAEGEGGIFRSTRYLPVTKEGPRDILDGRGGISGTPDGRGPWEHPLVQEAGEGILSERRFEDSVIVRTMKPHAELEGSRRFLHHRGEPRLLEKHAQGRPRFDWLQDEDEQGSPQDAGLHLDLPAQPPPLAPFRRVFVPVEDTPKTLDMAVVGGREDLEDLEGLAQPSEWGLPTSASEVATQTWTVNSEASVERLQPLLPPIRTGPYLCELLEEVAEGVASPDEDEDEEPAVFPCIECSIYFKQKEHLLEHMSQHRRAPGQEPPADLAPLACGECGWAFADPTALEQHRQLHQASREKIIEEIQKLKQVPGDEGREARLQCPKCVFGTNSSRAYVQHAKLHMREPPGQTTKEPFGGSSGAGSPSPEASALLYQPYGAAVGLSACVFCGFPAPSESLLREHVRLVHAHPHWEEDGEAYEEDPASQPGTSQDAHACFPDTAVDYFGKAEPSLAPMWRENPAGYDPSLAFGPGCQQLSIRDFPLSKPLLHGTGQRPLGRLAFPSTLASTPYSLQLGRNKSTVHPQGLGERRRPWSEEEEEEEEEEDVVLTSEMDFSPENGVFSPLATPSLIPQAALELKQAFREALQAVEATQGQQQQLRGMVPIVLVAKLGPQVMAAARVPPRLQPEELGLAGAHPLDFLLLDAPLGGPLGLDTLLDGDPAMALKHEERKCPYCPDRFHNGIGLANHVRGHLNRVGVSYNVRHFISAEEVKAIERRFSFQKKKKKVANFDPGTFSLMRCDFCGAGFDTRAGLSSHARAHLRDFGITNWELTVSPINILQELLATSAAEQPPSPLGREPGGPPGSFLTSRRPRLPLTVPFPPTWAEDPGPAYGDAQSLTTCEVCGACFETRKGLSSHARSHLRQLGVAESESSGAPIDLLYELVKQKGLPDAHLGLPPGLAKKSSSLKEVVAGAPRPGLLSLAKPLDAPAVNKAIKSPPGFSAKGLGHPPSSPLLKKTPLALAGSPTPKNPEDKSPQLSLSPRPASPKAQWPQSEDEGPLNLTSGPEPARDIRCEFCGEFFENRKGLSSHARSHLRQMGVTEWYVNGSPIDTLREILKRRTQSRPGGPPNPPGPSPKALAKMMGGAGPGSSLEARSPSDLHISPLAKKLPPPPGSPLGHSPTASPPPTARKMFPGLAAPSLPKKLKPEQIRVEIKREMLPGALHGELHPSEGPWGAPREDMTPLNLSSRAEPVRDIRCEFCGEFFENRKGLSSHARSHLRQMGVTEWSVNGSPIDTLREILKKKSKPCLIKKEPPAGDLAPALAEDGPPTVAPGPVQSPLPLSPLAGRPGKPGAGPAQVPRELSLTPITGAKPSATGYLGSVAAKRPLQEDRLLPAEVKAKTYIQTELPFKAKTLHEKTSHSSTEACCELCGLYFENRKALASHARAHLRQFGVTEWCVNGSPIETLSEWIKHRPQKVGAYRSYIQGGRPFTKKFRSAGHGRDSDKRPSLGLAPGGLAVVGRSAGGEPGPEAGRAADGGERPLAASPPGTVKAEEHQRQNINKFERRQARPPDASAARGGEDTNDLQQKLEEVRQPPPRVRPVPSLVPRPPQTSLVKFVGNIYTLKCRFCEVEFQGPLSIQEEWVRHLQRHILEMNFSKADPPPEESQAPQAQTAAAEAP
# T1 sequence (Q96SW2 whole entry): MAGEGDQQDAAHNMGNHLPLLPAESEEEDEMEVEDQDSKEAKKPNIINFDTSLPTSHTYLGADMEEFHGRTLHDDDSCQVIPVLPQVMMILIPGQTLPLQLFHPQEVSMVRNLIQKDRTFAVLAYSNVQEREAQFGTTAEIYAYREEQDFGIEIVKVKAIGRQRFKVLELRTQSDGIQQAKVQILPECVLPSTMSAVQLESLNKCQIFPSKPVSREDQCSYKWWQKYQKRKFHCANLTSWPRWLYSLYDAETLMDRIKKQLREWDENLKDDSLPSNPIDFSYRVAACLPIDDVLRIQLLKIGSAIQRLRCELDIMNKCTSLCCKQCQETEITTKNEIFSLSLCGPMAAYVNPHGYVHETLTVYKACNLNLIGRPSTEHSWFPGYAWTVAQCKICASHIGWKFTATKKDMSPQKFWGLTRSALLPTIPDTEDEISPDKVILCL
# T1 sequence (Q16531 whole entry partner): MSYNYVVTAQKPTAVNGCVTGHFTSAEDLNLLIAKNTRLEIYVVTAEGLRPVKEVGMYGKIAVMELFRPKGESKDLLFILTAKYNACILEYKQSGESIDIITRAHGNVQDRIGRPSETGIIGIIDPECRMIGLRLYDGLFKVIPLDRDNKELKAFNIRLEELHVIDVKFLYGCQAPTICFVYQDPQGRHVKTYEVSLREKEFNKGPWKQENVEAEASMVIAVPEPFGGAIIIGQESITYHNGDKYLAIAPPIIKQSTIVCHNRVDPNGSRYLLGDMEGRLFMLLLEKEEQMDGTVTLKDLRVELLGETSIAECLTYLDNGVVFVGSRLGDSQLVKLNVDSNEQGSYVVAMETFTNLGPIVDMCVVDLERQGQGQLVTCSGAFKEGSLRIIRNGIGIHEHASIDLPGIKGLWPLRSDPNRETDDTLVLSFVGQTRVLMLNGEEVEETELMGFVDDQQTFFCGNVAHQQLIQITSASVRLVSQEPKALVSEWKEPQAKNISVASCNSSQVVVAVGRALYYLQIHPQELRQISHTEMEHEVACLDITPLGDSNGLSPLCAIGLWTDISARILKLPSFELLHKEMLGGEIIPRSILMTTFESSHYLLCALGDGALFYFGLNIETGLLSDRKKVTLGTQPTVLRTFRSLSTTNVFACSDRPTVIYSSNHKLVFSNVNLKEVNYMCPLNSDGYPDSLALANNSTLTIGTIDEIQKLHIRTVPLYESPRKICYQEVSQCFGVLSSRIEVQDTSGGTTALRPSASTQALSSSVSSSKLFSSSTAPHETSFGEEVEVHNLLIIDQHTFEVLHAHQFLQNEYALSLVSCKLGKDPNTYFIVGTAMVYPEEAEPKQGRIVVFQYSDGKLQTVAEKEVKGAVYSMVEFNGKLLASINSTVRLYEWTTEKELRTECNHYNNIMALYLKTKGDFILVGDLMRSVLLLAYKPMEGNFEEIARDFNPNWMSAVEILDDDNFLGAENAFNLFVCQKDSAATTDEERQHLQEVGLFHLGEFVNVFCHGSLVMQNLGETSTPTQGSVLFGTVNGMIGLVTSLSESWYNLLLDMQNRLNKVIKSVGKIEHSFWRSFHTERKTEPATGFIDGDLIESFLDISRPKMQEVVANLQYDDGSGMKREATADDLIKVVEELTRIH
SMILES,Dmax [1] [%],"remaining activity at 25 µM (HEK-293T, read-out: WIZ Amax) [%]","DC50 (read-out: WIZ AC50; WIZ HiBit assay in 293T cells, about 18 hours, 10-point 5-fold dilution, top 25 μM) [nM]",remaining activity at 25 µM [2] [%],Dmax at 25 µM [3] [%],DC50 [4] [nM]
"CCN1C[C@H](Oc2ccc3c(c2)CN(C2CCC(=O)NC2=O)C3=O)CC[C@H]1C (stereo partly drawn) [Example 23, 3-(5-(((3R,6R)-1-ethyl-6-methylpiperidin-3-yl)oxy)-1-oxoisoindolin-2-yl)piperidine-2,6-dione]",57.7,42.3,30,,,
"CC#CCN1CCC[C@@H](Oc2ccc3c(c2)CN(C2CCC(=O)NC2=O)C3=O)C1 (stereo partly drawn) [Example 24, 3-(5-(((R)-1-(but-2-yn-1-yl)piperidin-3-yl)oxy)-1-oxoisoindolin-2-yl)piperidine-2,6-dione]",,,,47.3,52.7,10
"O=C1CCC(N2Cc3cc(O[C@@H]4CCCN(CC#CC5CC5)C4)ccc3C2=O)C(=O)N1 (stereo partly drawn) [Example 25, 3-(5-(((R)-1-(3-cyclopropylprop-2-yn-1-yl)piperidin-3-yl)oxy)-1-oxoisoindolin-2-yl)piperidine-2,6-dione]",,,,50.2,49.8,7.5
"CCO[C@H]1C[C@@H](N2CCC[C@@H](Oc3ccc4c(c3)CN(C3CCC(=O)NC3=O)C4=O)C2)C1 (stereo partly drawn) [Example 26, 3-(5-(((R)-1-((1s,3S)-3-ethoxycyclobutyl)piperidin-3-yl)oxy)-1-oxoisoindolin-2-yl)piperidine-2,6-dione]",,,,58.9,41.1,21
"CO[C@H]1C[C@H](CN2CCC[C@@H](Oc3ccc4c(c3)CN(C3CCC(=O)NC3=O)C4=O)C2)C1 (stereo partly drawn) [Example 27, 3-(5-(((R)-1-(((1r,3R)-3-methoxycyclobutyl)methyl)piperidin-3-yl)oxy)-1-oxoisoindolin-2-yl)piperidine-2,6-dione]",,,,60.3,39.7,130
"O=C1CCC(N2Cc3cc(O[C@@H]4CCCN(C5CC6(CCOCC6)C5)C4)ccc3C2=O)C(=O)N1 (stereo partly drawn) [Example 28, 3-(5-(((R)-1-(7-oxaspiro[3.5]nonan-2-yl)piperidin-3-yl)oxy)-1-oxoisoindolin-2-yl)piperidine-2,6-dione]",,,,67.1,32.9,84
"CO[C@H]1CC[C@H](CN2CCC[C@@H](Oc3ccc4c(c3)CN(C3CCC(=O)NC3=O)C4=O)C2)CC1 (stereo partly drawn) [Example 30, 3-(5-(((R)-1-(((1r,4R)-4-methoxycyclohexyl)methyl)piperidin-3-yl)oxy)-1-oxoisoindolin-2-yl)piperidine-2,6-dione]",,,,70.8,29.2,79
"C=CCCN1CCC[C@@H](Oc2ccc3c(c2)CN(C2CCC(=O)NC2=O)C3=O)C1 (stereo partly drawn) [Example 31, 3-(5-(((R)-1-(but-3-en-1-yl)piperidin-3-yl)oxy)-1-oxoisoindolin-2-yl)piperidine-2,6-dione]",,,,31.4,68.6,8.9
"CC[C@@H](C)N1CCC[C@@H](Oc2ccc3c(c2)CN(C2CCC(=O)NC2=O)C3=O)C1 (stereo partly drawn) [Example 32, 3-(5-(((R)-1-((R)-sec-butyl)piperidin-3-yl)oxy)-1-oxoisoindolin-2-yl)piperidine-2,6-dione]",,,,19.2,80.8,1.7
"CC[C@H](C)N1CCC[C@@H](Oc2ccc3c(c2)CN(C2CCC(=O)NC2=O)C3=O)C1 (stereo partly drawn) [Example 33, 3-(5-(((R)-1-((S)-sec-butyl)piperidin-3-yl)oxy)-1-oxoisoindolin-2-yl)piperidine-2,6-dione]",,,,18.6,81.4,1.5
"CCN1CCCC[C@@H](Oc2ccc3c(c2)CN(C2CCC(=O)NC2=O)C3=O)C1 (stereo partly drawn) [Example 36, 3-(5-(((R)-1-ethylazepan-3-yl)oxy)-1-oxoisoindolin-2-yl)piperidine-2,6-dione]",67.5,32.5,,,,57
"CCN1CCCC[C@H](Oc2ccc3c(c2)CN(C2CCC(=O)NC2=O)C3=O)C1 (stereo partly drawn) [Example 37, 3-(5-(((S)-1-ethylazepan-3-yl)oxy)-1-oxoisoindolin-2-yl)piperidine-2,6-dione]",,103,,,,> 25000
"CC(C)CN1CCCC[C@@H](Oc2ccc3c(c2)CN(C2CCC(=O)NC2=O)C3=O)C1 (stereo partly drawn) [Example 38, 3-(5-(((R)-1-isobutylazepan-3-yl)oxy)-1-oxoisoindolin-2-yl)piperidine-2,6-dione]",,,,35.6,64.3,25
"CCN1CC[C@@H](Oc2ccc3c(c2)CN(C2CCC(=O)NC2=O)C3=O)C1 (stereo partly drawn) [Example 39, 3-(5-(((R)-1-ethylpyrrolidin-3-yl)oxy)-1-oxoisoindolin-2-yl)piperidine-2,6-dione]",52.1,47.9,,,,210
"CCN1CC[C@H](Oc2ccc3c(c2)CN(C2CCC(=O)NC2=O)C3=O)C1 (stereo partly drawn) [Example 40, 3-(5-(((S)-1-ethylpyrrolidin-3-yl)oxy)-1-oxoisoindolin-2-yl)piperidine-2,6-dione]",,,,73.5,26.5,770
"O=C1CCC(N2Cc3cc(O[C@@H]4CCCN(C5CCCC5)C4)ccc3C2=O)C(=O)N1 (stereo partly drawn) [Example 42, 3-(5-(((R)-1-cyclopentylpiperidin-3-yl)oxy)-1-oxoisoindolin-2-yl)piperidine-2,6-dione]",,,,22.9,77.1,3.6
"O=C1CCC(N2Cc3cc(O[C@@H]4CCCN(C5CCCCC5)C4)ccc3C2=O)C(=O)N1 (stereo partly drawn) [Example 43, 3-(5-(((R)-1-cyclohexylpiperidin-3-yl)oxy)-1-oxoisoindolin-2-yl)piperidine-2,6-dione]",,,,28.1,71.9,3.7
"CCN1C[C@@H](F)C[C@@H](Oc2ccc3c(c2)CN(C2CCC(=O)NC2=O)C3=O)C1 (stereo partly drawn) [Example 59, 3-(5-(((3R,5S)-1-ethyl-5-fluoropiperidin-3-yl)oxy)-1-oxoisoindolin-2-yl)piperidine-2,6-dione]",64.4,35.6,,,,2.6
"CCN1C[C@H](F)C[C@@H](Oc2ccc3c(c2)CN(C2CCC(=O)NC2=O)C3=O)C1 (stereo partly drawn) [Example 60, 3-(5-(((3R,5R)-1-ethyl-5-fluoropiperidin-3-yl)oxy)-1-oxoisoindolin-2-yl)piperidine-2,6-dione]",37,63,,,,78
"CCO[C@@H]1C[C@@H](Oc2ccc3c(c2)CN(C2CCC(=O)NC2=O)C3=O)CN(CC)C1 (stereo partly drawn) [Example 63, 3-(5-(((3R,5R)-5-ethoxy-1-ethylpiperidin-3-yl)oxy)-1-oxoisoindolin-2-yl)piperidine-2,6-dione]",79.5,20.5,,,,0.12
"CCN1C[C@H](OC)C[C@@H](Oc2ccc3c(c2)CN(C2CCC(=O)NC2=O)C3=O)C1 (stereo partly drawn) [Example 64, 3-(5-(((3R,5R)-1-ethyl-5-methoxypiperidin-3-yl)oxy)-1-oxoisoindolin-2-yl)piperidine-2,6-dione]",79.5,20.6,,,,6.3
"CCN1C[C@H](O)C[C@@H](Oc2ccc3c(c2)CN(C2CCC(=O)NC2=O)C3=O)C1 (stereo partly drawn) [Example 66, 3-(5-(((3R,5R)-1-ethyl-5-hydroxypiperidin-3-yl)oxy)-1-oxoisoindolin-2-yl)piperidine-2,6-dione]",,,,19.9,80.1,33.3
"CC(C)N1C[C@H](O)C[C@@H](Oc2ccc3c(c2)CN(C2CCC(=O)NC2=O)C3=O)C1 (stereo partly drawn) [Example 67, 3-(5-(((3R,5R)-5-hydroxy-1-isopropylpiperidin-3-yl)oxy)-1-oxoisoindolin-2-yl)piperidine-2,6-dione]",,,,16.9,83.1,11.2
"CCO[C@@H]1C[C@@H](Oc2ccc3c(c2)CN(C2CCC(=O)NC2=O)C3=O)CN(C(=O)NC)C1 (stereo partly drawn) [Example 68, (3R,5R)-3-((2-(2,6-dioxopiperidin-3-yl)-1-oxoisoindolin-5-yl)oxy)-5-ethoxy-N-methylpiperidine-1-carboxamide]",,,,105,,> 25000
